Laboratory results from patent publication US20210181179A1, “DIAGNOSIS AND TREATMENT OF IMMUNOTHERAPY-INDUCED NEUROTOXICITY” (MEMORIAL SLOAN KETTERING CANCER CENTER, priority 2018, published 2021).

How the values were obtained:
NMDA receptors = assay: Western blot of HCN2 neurons for NMDA receptor activation (p-CREB, p-Erk); assay type: cell-based; conditions: 30 min, cytokines applied via culture filtrates of stimulated HMC3 microglia
Excerpt: FIGS. 18A-B. Western blot analysis of HCN2 neurons showing NMDA receptor activation through increase in p-CREB levels in response to exposure to conditioned media. The conditioned media was produced by microglia and monocytes treated with cytokines to stimulate quinolinic acid (QUIN) production (FIG. 18A). This effect can be blocked with the use of IDO and AhR inhibitors (FIG. 18B) that block either kynurenine metabolite production or signaling.
QUIN binds directly to NMDA receptors, and leads to Ca^2+ influx, followed by activation cascade through Erk kinase phosphorylation and eventual phosphorylation of CREB transcription factor. In order to test if microglial cell derived QUIN is sufficient to activate NMDA receptors, we performed a co-culture experiment. Culture filtrates from an HMC3 microglial cell line were stimulated with IFNγ, Il1β, or combination of both, and were layered over HCN2 cortical neurons for 30 min, after which the cells were lysed and tested for downstream effectors of NMDA receptor activation.

[1] = test system: HMC3 microglial cell line; assay: RT-PCR of cytokines and chemokines in microglial cells; assay type: cell-based, human; conditions: for key chemokines, including CCL2, CXCL9 and CXCL10, and cytokine IL1beta: monocyte and microglial cell activation
Excerpt: FIGS. 19A-E. Kynurenine metabolites contribute to CRS. (FIG. 19A-B) RT-PCR analysis of cytokines and chemokines that lead to myeloid cell activation in response to kynurenine metabolites exposure. ([…]) Western blot analysis of HMC3 microglial cell line in response to kynurenine metabolites exposure. (FIGS. 19D-E.) RT-PCR analysis of cytokines and chemokines in response to exposure to cytokines shown (TNF, Il1β, IFNγ).
CCL2 (MCP1) and CXCL10 (IP10) serve as chemo-attractants for myeloid and T cells, while CXCL9 (MIG) is a potent T cell chemoattractant. […] We confirmed Il1β protein production in response to Il1β stimulation (FIG. 19C). Il1β production was dependent on Ahr activity, as addition of an Ahr antagonist blocked up-regulation of Il1β. Il1β is a strong inducer of microglial activation.

[2] = test system: adult patients with CD19+B-ALL; assay: Management of neurotoxicity and CRS (tocilizumab, corticosteroid, seizure prophylaxis) in the 19-28z CAR T cell trial; assay type: in vivo, human
Excerpt: The anti-IL-6 receptor monoclonal antibody, tocilizumab, with or without corticosteroid is often used to mitigate CRS and neurotoxicity. Six (18%) of 33 patients with neurotoxicity received tocilizumab alone; 14 (42%) received tocilizumab plus corticosteroid; 4 (12%) received corticosteroid alone; and 9 (27%) received neither tocilizumab nor corticosteroid (FIG. 6/Supplementary Fig. S1). In the 16 patients with severe neurotoxicity who received tocilizumab, 9 (56.3%) had peak neurotoxicity after the first dose of tocilizumab whereas 7 (43.7%) had peak neurotoxicity prior to or on the day of tocilizumab administration. […] The time from first tocilizumab and/or steroid dose to resolution of neurotoxicity (median, 9 days; range 4-21 days) was longer than the time to resolution of CRS (median, 1 day; range 0-3 days; P<0.001), confirming previous findings that neurotoxicity is less responsive than CRS to these treatment interventions.
Toxicity assessment: CRS was graded according to the MSKCC CRS grading system. Severe CRS was defined as ≥grade 3. Neurotoxicity was prospectively graded according to National Cancer Institute common terminology criteria for adverse events (CTCAE) v4.03 by the principal investigator (P). An independent retrospective review of the electronic medical record was performed by a neurologist (BS) who assigned daily neurotoxicity grades to the AE terms according to CTCAE v4.03. Discrepancies were adjudicated by consensus review. All patients developing neurologic symptoms were evaluated by the neurology consult service and followed with daily neurologic assessments until neurologic symptom resolution. Severe neurotoxicity was defined as ≥grade 3 toxicity with the exception that any seizure (including grade 1 or 2 by CTCAE criteria) was included as severe neurotoxicity.

[3] = early intervention strategy; cited from earlier work
SUP-B15 (B-ALL) = assay: Net production of TRP metabolites in media samples, SUP-B15; assay type: cell-based
HMC3 (microglia) = assay: Net production of TRP metabolites in media samples, HMC3; assay type: cell-based, human
Excerpt: (§1) Under physiological conditions in the brain, kynurenine metabolism is driven by microglial cells and astrocytes with preferential production of QUIN and KA respectively. […] This may have been due to T cells producing cytokines and/or intermediate metabolites that are further metabolized to QUIN by the cells. In order to identify specific factors that may lead to tryptophan-kynurenine pathway up-regulation for QUIN production, we tested a panel of cytokine and chemokines implicated in NTX and CRS. […] We initially evaluated the panel of the select factors individually (FIGS. 16 A-B). We selected several cytokines based on their effect on rate-limiting enzymes for QUIN production. These included IFNγ, TNF, […], CXCL10 and […]. These enzymes were selected based on their regulation of key enzymes, KMO and KYNU, which may lead to supraphysiological accumulation of QUIN. These factors were further evaluated, individually or in combination, on astrocytoma, microglial, and primary monocyte-derived macrophages for mRNA levels of kynurenine pathway enzymes and kynurenine metabolites production (FIG. 17).

HCN2 (cortical neuron) = assay: Net production of TRP metabolites in media samples, HCN2; assay type: cell-based
KARPAS231 (B-ALL) = assay: Net production of TRP metabolites in media samples, KARPAS231; assay type: cell-based
THP-1 (monocyte) = assay: Net production of TRP metabolites in media samples, THP-1; assay type: cell-based
CCRF-SB (B-ALL) = assay: Net production of TRP metabolites in media samples, CCRF-SB; assay type: cell-based
ALL3.1 (B-ALL) = assay: Net production of TRP metabolites in media samples, ALL3.1; assay type: cell-based
DOAY (medulloblastoma) = assay: Net production of TRP metabolites in media samples, DOAY; assay type: cell-based
RS4; 11 (B-ALL) = assay: Net production of TRP metabolites in media samples, RS4; 11; assay type: cell-based
BV173 (B-ALL) = assay: Net production of TRP metabolites in media samples, BV173; assay type: cell-based
CCF-STTG1 (astrocytoma) = assay: Net production of TRP metabolites in media samples, CCF-STTG1; assay type: cell-based, human
Excerpt: as §1

## Il1beta: cytokine
NMDA receptors
  p-CREB and p-Erk in cortical neurons: p-CREB and p-Erk upregulation
[1]; RT-PCR
  monocyte attracting factors in response to Il1b: strong upregulation of monocyte attracting factors, CCL2, CXCL9 and CXCL19

## O=C(O)c1cc(=O)c2ccccc2[nH]1 [KA, kynurenic acid]
[1]
  key chemokines, including CCL2, CXCL9 and CXCL10, and cytokine IL1beta: up-regulation

## CC[C@@H](C(N)=O)N1CCCC1=O [levetiracetam]
[2]; seizure prophylaxis
  patients who developed seizure despite levetiracetam prophylaxis: 14 patients

## Nc1ccccc1C(=O)CC(N)C(=O)O (centres unmarked) [kynurenine]
[1]; microglial cells, RT-PCR
  production of chemokines and cytokines on co-incubation: induced production of several chemokines (CCL2, CXCL9, CXCL10) and cytokines, most notably Il1β
[1]
  key chemokines, including CCL2, CXCL9 and CXCL10, and cytokine IL1beta: up-regulation

## O=C(O)c1cccnc1C(=O)O [quinolinic acid]
NMDA receptors
  p-CREB and p-Erk in cortical neurons: p-CREB and p-Erk upregulation

## tocilizumab
[2]; 7 of 16 patients with severe neurotoxicity who received tocilizumab
  patients with peak neurotoxicity prior to or on the day of tocilizumab administration: 43.7%
[2]; 9 of 16 patients with severe neurotoxicity who received tocilizumab
  patients with peak neurotoxicity after the first dose of tocilizumab: 56.3%
[2]; in most patients
  response of neurotoxicity to tocilizumab administration: did not respond
[2]; range 0-3 days
  time from first tocilizumab and/or steroid dose to resolution of CRS (median): 1 days
[2]; range 4-21 days
  time from first tocilizumab and/or steroid dose to resolution of neurotoxicity (median): 9 days
[2]; serum
  serum IL6 after tocilizumab administration: transient increase of serum IL6
[2]; tocilizumab therapy alone
  effect on CRS: readily improved CRS
  effect on neurologic symptoms: did not ameliorate neurologic symptoms
[3]
  frequency of severe neurotoxicity: did not affect the frequency of severe neurotoxicity
  rate of severe CRS: decreased the rate of severe CRS

## IFNγ: cytokine
SUP-B15 (B-ALL)
  Net production of TRP metabolites in media samples: 3-HK: 18.5 ± 14.8
  Net production of TRP metabolites in media samples: HAA: 6.92 ± 0.9
  Net production of TRP metabolites in media samples: KA: −7.42 ± 3.2
  Net production of TRP metabolites in media samples: KYN: 299.52 ± 209^
  Net production of TRP metabolites in media samples: QUIN: −70 ± 31
HMC3 (microglia)
  Net production of TRP metabolites in media samples: 3-HK: 20.8 ± 20.5
  Net production of TRP metabolites in media samples: HAA: 0.76 ± 3.3
  Net production of TRP metabolites in media samples: KA: 48.46 ± 25.8
  Net production of TRP metabolites in media samples: KYN: 45327.9 ± 11654
  Net production of TRP metabolites in media samples: QUIN: 55.88 ± 34^
HCN2 (cortical neuron)
  Net production of TRP metabolites in media samples: 3-HK: −4.84 ± 8.3
  Net production of TRP metabolites in media samples: HAA: 6.34 ± 1.1
  Net production of TRP metabolites in media samples: KA: 6.48 ± 4.8
  Net production of TRP metabolites in media samples: KYN: 1597.26 ± 77
  Net production of TRP metabolites in media samples: QUIN: 25.26 ± 27.11
KARPAS231 (B-ALL)
  Net production of TRP metabolites in media samples: 3-HK: 90.74 ± 9.3
  Net production of TRP metabolites in media samples: HAA: 244.46 ± 24.4
  Net production of TRP metabolites in media samples: KA: −9.22 ± 3.8
  Net production of TRP metabolites in media samples: KYN: 1247.28 ± 62.2
  Net production of TRP metabolites in media samples: QUIN: −26.02 ± 27.3
THP-1 (monocyte)
  Net production of TRP metabolites in media samples: 3-HK: 1.78 ± 1.9
  Net production of TRP metabolites in media samples: KA: −7.14 ± 5.2
  Net production of TRP metabolites in media samples: KYN: 2593.4 ± 153.7
  Net production of TRP metabolites in media samples: QUIN: −26.4 ± 68^
CCRF-SB (B-ALL)
  Net production of TRP metabolites in media samples: 3-HK: 1.9 ± 7.3
  Net production of TRP metabolites in media samples: HAA: 5.9 ± 0.5
  Net production of TRP metabolites in media samples: KA: −8.3 ± 5.5
  Net production of TRP metabolites in media samples: KYN: 410.1 ± 79.1
  Net production of TRP metabolites in media samples: QUIN: −53.44 ± 37.8
ALL3.1 (B-ALL)
  Net production of TRP metabolites in media samples: 3-HK: 8.76 ± 7.8
  Net production of TRP metabolites in media samples: KA: −3.32 ± 3.4
  Net production of TRP metabolites in media samples: KYN: 55.94 ± 132
  Net production of TRP metabolites in media samples: QUIN: 40.94 ± 140.3
DOAY (medulloblastoma)
  Net production of TRP metabolites in media samples: 3-HK: −13.38 ± 1.5
  Net production of TRP metabolites in media samples: HAA: 10.66 ± 0.9
  Net production of TRP metabolites in media samples: KA: 11.08 ± 0.9
  Net production of TRP metabolites in media samples: KYN: 6757.9 ± 129.3
  Net production of TRP metabolites in media samples: QUIN: 34.8 ± 7^
RS4; 11 (B-ALL)
  Net production of TRP metabolites in media samples: 3-HK: 0.12 ± 1.4
  Net production of TRP metabolites in media samples: KA: −2.8 ± 7.2
  Net production of TRP metabolites in media samples: KYN: 26.58 ± 19.7
  Net production of TRP metabolites in media samples: QUIN: −4.26 ± 37.4
BV173 (B-ALL)
  Net production of TRP metabolites in media samples: 3-HK: 1.06 ± 2.6
  Net production of TRP metabolites in media samples: KA: −4.58 ± 5^
  Net production of TRP metabolites in media samples: KYN: 46.72 ± 51.1
  Net production of TRP metabolites in media samples: QUIN: 6.54 ± 42.2
CCF-STTG1 (astrocytoma)
  Net production of TRP metabolites in media samples: 3-HK: −12.24 ± 1.2
  Net production of TRP metabolites in media samples: HAA: 8.88 ± 0.2
  Net production of TRP metabolites in media samples: KA: 8.2 ± 2.9
  Net production of TRP metabolites in media samples: KYN: 12049.08 ± 526
  Net production of TRP metabolites in media samples: QUIN: 1.34 ± 16
